Test: Compatibility study: rosiglitazone maleate mixed with excipients/metformin and water, formation of Compound 1
Assay type: physicochemical
Details: rosiglitazone maleate mixed with the named excipient in proportions of 500 mg/4 mg tablets, 0.5 ml water added, 65° C. for 4 days
Experimental: Rosiglitazone maleate was mixed with various excipients and with metformin in the same proportions as present in the 500 mg/4 mg (base strength) metformin/rosiglitazone maleate tablets. 0.5 ml of water was added to each mixture, and the samples were kept at 65° C. for 4 days. The amount of Compound 1 was determined in each of the samples using the method in Example 4. The peaks were measured and the area percent (area of Compound 1 peak/area of all rosiglitazone related peaks) of the Compound 1 peak is listed below.
Placebo mix A refers to a mixture of excipients as indicated in Example 5a, with the exception of rosiglitazone maleate.
Placebo mix B refers to a mixture of excipients as indicated in Example 5b, with the exception of rosiglitazone maleate.

Area Percent of Compound 1 peak (area of Compound 1 peak/area of all rosiglitazone related peaks): 0.9 Area Percent
Structure (SMILES): CN(CCOc1ccc(CC2SC(=O)NC2=O)cc1)c1ccccn1.O=C(O)/C=C\C(=O)O (racemic) [Rosiglitazone Maleate (alone), (±)-5-[[4-[2-(methyl-2-pyridinylamino)ethoxy]phenyl]methyl]-2,4-thiazolidinedione, (Z)-2-butenedioate (1:1)]

Source: patent US7632841B2, “2-N{5-[[4-[2-(methyl-2-pyridinylamino) ethoxy] phenyl]methyl]-2,4-thiazolidinedione} butanedioic acid, methods of preparation and compositions with rosiglitazone maleate” (Teva Pharmaceutical Industries, Ltd., priority 2006, dated 2009)
